The values below come from US8481587B2, “Substituted 2-(5-hydroxy-2-methyl-1H-indole-3-yl)acetic acids and ethers thereof and the use of same to treat viral diseases” (priority 2008, dated 2013).

Data set [1] has as its system hepatisis C viruses (HCV) strain JFH-1. In words: Antiviral activity towards HCV in infected Huh7 cells (core-antigen ELISA). It counts as cell-based, HCV strain JFH-1 in human hepatoma (Huh7) cells. The conditions noted are these: Hepatitis C virus, Huh-7; HCV strain JFH-1, Huh7 cells. The procedure: Determination of antiviral activity of the compounds of the general formula 1 towards hepatisis C viruses. Determination of antiviral activity of the compounds of the general formula 1 towards hepatisis C viruses (HCV) strain JFH-1 in cell culture of human hepatoma (Huh7) infected with HCV.
Cells Huh7 were embedded in 96-well plates (7.5×10^3 cells in every well in 50 μl of nutrient solution). 5×-concentrated solutions of the tested compounds in DMEM medium {DMEM) 1×; the source: Cellgro; Catalogue: 10-013-CV} were prepared just before the usage. In total, four serial fivefold dilutions with concentration ranging from 250 μM to 2 μM were prepared. In 4 hours after cell embedding serial dilutions of the compounds were added to the cells (50 mkl per one well). Each dilution of the examined compound was tested for two identical wells. The final DMSO concentration amounted up to 0.5%. Then, the cells were incubated for 3 hours at 37° C./5% CO2. After the incubation virus (300 tissue culture infective doses in 30 μl per one well) was added to the cells. […]. Then the cells were incubated for 3 hours at 37° C./5% CO2. The cells were fixed by addition acetone/methanol (1:1) mixture in amount of 250 gμl/well. In one minute the cells were washed with Phosphate Buffered Saline (PBS) three times. After that the cells were quenched by addition of 10% solution of fetal calf serum in PBS (150 μl/well) and kept for one hour at room temperature. Then the cells were incubated with mouse monoclonal antibody (100 μl/well) to cor-antigen HCV, clone C7-50 (Source: Affinity BioReagents; Catalogue: MA1-080) (working dilution—1:500 in 10% solution of fetal calf serum in PBS) for two hours at 37° C. The cells were washed 6 times with PBS/0.05% Tween 20 solution and incubated for one hour with peroxidase conjugated goat anti-mouse immunoglobulin (100 μl/well) (working dilution—1:2500 in 10% solution of fetal calf serum in PBS). The cells were washed 6 times with PBS/0.05% Tween 20 solution, then with PBS solution, and 100 μl/well of the substrate (consisting of 1 tablet of oPD, 12 ml of citrate/phosphate buffer and 5 μl of 30% H2O2) were added. The plates were kept for 30 min in darkness at room temperature. The reaction was stopped by addition of 2N […] (100 μl/well), optical density (at 490 nm) was measured with the help of multichannel spectrophotometer Victor3 V 1420 (Perkin Elmer). IC50 values for every tested compound were calculated using XLfit 4 programm.

For data set [2], the system named is influenza A/New Caledonia/20/99 (H1N1) viruses. As to the kind of experiment: microbe, parasite or virus in culture. Type of data set: cell-based.
Data set [3] concerns cellular line MDCK. The settings on record: cited from earlier work.
Data set [4] relates to influenza virus. The settings on record: cellular line MDCK, cited from earlier work.
Data set [5] deals with some other cellular lines. The conditions noted are these: cited from earlier work.
[6] abbreviates: influenza A/New Caledonia/20/99 (H1N1), MDCK cells, ELISA, read-out: IC50.

Converted amounts (≈) assume the structure as drawn. Counter-ions that a name gives are not always drawn. Like-named read-outs stand apart in the source and are kept apart here. A value given as a limit tells only on which side of the number the result lay.

`COC(=O)Cc1c(C)n(C(=O)c2ccc(Cl)cc2)c2ccc(OC)c(F)c12` [1e(1), methyl 2-[2-methyl-5-methoxy-4-fluoro-1-(4-chlorobenzoyl)-1H-indol-3-yl]acetate] had an IC50 in data set [1] of 39 µM.

In turn, `COC(=O)Cc1c(C)[nH]c2cc(F)c(OC)cc12` [1.2(1), methyl 2-(2-methyl-5-methoxy-6-fluoro-1H-indol-3-yl)acetate] came in with an IC50 in data set [1] of 13 µM.

Take `COC(=O)Cc1c(C)n(C)c2cc(F)c(OC)cc12` [1g(2), methyl 2-(1,2-dimethyl-5-methoxy-6-fluoro-1H-indol-3-yl)acetate]: the figures for the IC50 in data set [2] (setting [6]) and in data set [1] were 10 µg/mL (≈ 37.7 µM) and 6.3 µM, respectively.

In the case of `COC(=O)Cc1c(C)[nH]c2cc(C(F)(F)F)c(OC)cc12` [1.4(1), methyl 2-(2-methyl-5-methoxy-6-(trifluoromethyl)-1H-indol-3-yl)acetate], the IC50 in data set [2] (setting [6]) was above 15 µg/mL; in data set [1], 1.7 µM.

For `Cc1c(CC(=O)O)c2cc(O)c(F)cc2n1C` [1u(6), 2-(5-hydroxy-1,2-dimethyl-6-fluoro-1H-indol-3-yl)acetic acid], the IC50 in data set [2] (setting [6]) is above 15 µg/mL.

For `COc1ccc2c(c1F)c(CC(=O)O)c(CN(C)C)n2C` [1i(13), 2-(2-(dimethylamino)methyl-1-methyl-5-methoxy-4-fluoro-1H-indol-3-yl)acetic acid], the IC50 in data set [2] (setting [6]) came to 12 µg/mL (≈ 40.8 µM).

For `CCOC(=O)c1c(CSc2ccccc2)n(C)c2cc(Br)c(O)c(CN(C)C)c12.Cl` [Arbidol, ethyl 6-bromo-4-[(dimethylamino)methyl]-5-hydroxy-1-methyl-2-(phenylthiomethyl)-1H-indole-3-carboxylate hydrochloride], the TC50 in data set [3] is 62.5 µg/mL. The “selectivity index (SI50)” value in data set [4] (for influenza virus) is on record as 2.69. Further, the IC50 in data set [4] (influenza virus) is given as 23.2 mkg/ml. The CC50 in data set [5] is 15 to 25 µg/mL.

Consider `COC(=O)C(CCN(C)C)c1c(C)n(C)c2cc(C(F)(F)F)c(OC)cc12` (centres unmarked) [1p(2)•HCl, methyl 2-(1,2-dimethyl-5-methoxy-6-(trifluoromethyl)-1H-indol-3-yl)-4-dimethylaminobutyrate], for which the IC50 in data set [2] (H1N1, MDCK) was 12 µg/mL.

Take `COC(=O)Cc1c(C)n(C)c2cc(C(F)(F)F)c(OC)cc12` [1g(4), methyl 2-(1,2-dimethyl-5-methoxy-6-(trifluoromethyl)-1H-indol-3-yl)acetate]: the IC50 in data set [1] was 2.4 µM.

As to `CN(C)Cc1c(CC(=O)O)c2cc(O)c(-c3cccnc3)cc2n1C` [1t(5), 2-(5-hydroxy-2-(dimethylamino)methyl-1-methyl-6-(pyridin-3-yl)-1H-indol-3-yl)acetic acid], the IC50 in data set [2] (setting [6]) is above 15 µg/mL.

In data set [1], `COC(=O)Cc1c(C)[nH]c2ccc(OC)c(F)c12` [1.1(1), methyl 2-(2-methyl-5-methoxy-4-fluoro-1H-indol-3-yl)acetate] returned an IC50 of 38 µM.

The compound `COC(=O)Cc1c(C)n(C)c2cc(F)c(O)cc12` [1v(1), methyl 2-(5-hydroxy-1,2-dimethyl-6-fluoro-1H-indol-3-yl)acetate] had an IC50 in data set [1] of 50 µM.
